Reference: PubChem BioAssay (NCI)
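Exposure lasted 48 hours, with cells grown in 96-well plates and compounds tested at five concentrations. GI50 marks 50% less growth. TGI marks complete inhibition of growth.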

Experiments:
Experiment in all cases: NCI anticancer screen, dose series, 48 h; in the data active = GI50 below about 0.43 µM; inactive = the rest
HCT-116 colon = system: HCT-116 colon
HCT-15 colon = system: HCT-15 colon
DU-145 prostate = system: DU-145 prostate
COLO 205 colon = system: COLO 205 colon
SF-295 CNS = system: SF-295 CNS
PC-3 prostate = system: PC-3 prostate
HOP-62 NSCLC = system: HOP-62 NSCLC
U251 CNS = system: U251 CNS
A549 NSCLC = system: A549 NSCLC
SN12C renal = system: SN12C renal
RPMI-8226 leukemia = system: RPMI-8226 leukemia
K-562 leukemia = system: K-562 leukemia
IGROV1 ovarian = system: IGROV1 ovarian
NCI-H522 lung = system: NCI-H522 lung
SW-620 colon = system: SW-620 colon
MALME-3M melanoma = system: MALME-3M melanoma
HOP-92 NSCLC = system: HOP-92 NSCLC
OVCAR-8 ovarian = system: OVCAR-8 ovarian
SK-MEL-28 melanoma = system: SK-MEL-28 melanoma
OVCAR-4 ovarian = system: OVCAR-4 ovarian
SNB-75 CNS = system: SNB-75 CNS
MDA-MB-435 = system: MDA-MB-435
UACC-62 melanoma = system: UACC-62 melanoma
NCI-H23 lung = system: NCI-H23 lung
CAKI-1 renal = system: CAKI-1 renal
786-0 renal = system: 786-0 renal
LOX IMVI melanoma = system: LOX IMVI melanoma
MCF7 breast = system: MCF7 breast
M14 melanoma = system: M14 melanoma
SK-OV-3 ovarian = system: SK-OV-3 ovarian
HL-60(TB) leukemia = system: HL-60(TB) leukemia
NCI-H226 lung = system: NCI-H226 lung
CCRF-CEM leukemia = system: CCRF-CEM leukemia
SF-268 CNS = system: SF-268 CNS
SK-MEL-2 melanoma = system: SK-MEL-2 melanoma
RXF 393 renal = system: RXF 393 renal
SNB-19 CNS = system: SNB-19 CNS
UO-31 renal = system: UO-31 renal
NCI/ADR-RES ovarian = system: NCI/ADR-RES ovarian
KM12 colon = system: KM12 colon
SK-MEL-5 melanoma = system: SK-MEL-5 melanoma
MDA-N = system: MDA-N
OVCAR-3 ovarian = system: OVCAR-3 ovarian
MDA-MB-231 breast = system: MDA-MB-231 breast
NCI-H460 lung = system: NCI-H460 lung
SF-539 CNS = system: SF-539 CNS
SR leukemia = system: SR leukemia
ACHN renal = system: ACHN renal
OVCAR-5 ovarian = system: OVCAR-5 ovarian
MOLT-4 leukemia = system: MOLT-4 leukemia
TK-10 renal = system: TK-10 renal
UACC-257 melanoma = system: UACC-257 melanoma
HS 578T breast = system: HS 578T breast
EKVX NSCLC = system: EKVX NSCLC
T-47D breast = system: T-47D breast
HT29 colon = system: HT29 colon
HCC-2998 colon = system: HCC-2998 colon
A498 renal = system: A498 renal
BT-549 breast = system: BT-549 breast

Cc1cc(=O)oc2c(CNC(C(=O)O)C(C)O)c(O)ccc12 (centres undefined)
> 100 µM: TGI (HCT-116 colon) | TGI (HCT-15 colon) | TGI (DU-145 prostate) | TGI (COLO 205 colon) | TGI (SF-295 CNS) | TGI (PC-3 prostate) | TGI (HOP-62 NSCLC) | TGI (U251 CNS) | TGI (A549 NSCLC) | TGI (SN12C renal) | TGI (RPMI-8226 leukemia) | TGI (K-562 leukemia) | TGI (IGROV1 ovarian) | TGI (NCI-H522 lung) | TGI (SW-620 colon) | TGI (MALME-3M melanoma) | TGI (HOP-92 NSCLC) | TGI (OVCAR-8 ovarian) | TGI (SK-MEL-28 melanoma) | TGI (OVCAR-4 ovarian) | TGI (SNB-75 CNS) | TGI (MDA-MB-435) | TGI (UACC-62 melanoma) | TGI (NCI-H23 lung) | TGI (CAKI-1 renal) | TGI (786-0 renal) | TGI (LOX IMVI melanoma) | TGI (MCF7 breast) | TGI (M14 melanoma) | TGI (SK-OV-3 ovarian) | TGI (HL-60(TB) leukemia) | TGI (NCI-H226 lung) | TGI (CCRF-CEM leukemia) | TGI (SF-268 CNS) | TGI (SK-MEL-2 melanoma) | TGI (RXF 393 renal) | TGI (SNB-19 CNS) | TGI (UO-31 renal) | TGI (NCI/ADR-RES ovarian) | TGI (KM12 colon) | TGI (SK-MEL-5 melanoma) | TGI (MDA-N) | TGI (OVCAR-3 ovarian) | TGI (MDA-MB-231 breast) | TGI (NCI-H460 lung) | TGI (SF-539 CNS) | TGI (SR leukemia) | TGI (ACHN renal) | TGI (OVCAR-5 ovarian) | TGI (MOLT-4 leukemia) | TGI (TK-10 renal) | TGI (UACC-257 melanoma) | TGI (HS 578T breast) | TGI (EKVX NSCLC) | TGI (T-47D breast) | TGI (HT29 colon)

FC(F)(F)C1(C(F)(F)F)C2CCC3(CC(F)(F)C(F)(F)S3)C1C2 (centres undefined)
96.6 µM: TGI (EKVX NSCLC)
58.8 µM: TGI (RPMI-8226 leukemia)
35.9 µM: TGI (OVCAR-3 ovarian)
> 100 µM: TGI (HCT-15 colon) | TGI (DU-145 prostate) | TGI (SF-295 CNS) | TGI (PC-3 prostate) | TGI (HOP-62 NSCLC) | TGI (U251 CNS) | TGI (A549 NSCLC) | TGI (HCC-2998 colon) | TGI (SN12C renal) | TGI (K-562 leukemia) | TGI (IGROV1 ovarian) | TGI (NCI-H522 lung) | TGI (SW-620 colon) | TGI (OVCAR-8 ovarian) | TGI (SK-MEL-28 melanoma) | TGI (OVCAR-4 ovarian) | TGI (SNB-75 CNS) | TGI (MDA-MB-435) | TGI (UACC-62 melanoma) | TGI (NCI-H23 lung) | TGI (CAKI-1 renal) | TGI (786-0 renal) | TGI (A498 renal) | TGI (M14 melanoma) | TGI (SK-OV-3 ovarian) | TGI (NCI-H226 lung) | TGI (SF-268 CNS) | TGI (SNB-19 CNS) | TGI (NCI/ADR-RES ovarian) | TGI (KM12 colon) | TGI (SK-MEL-5 melanoma) | TGI (MDA-N) | TGI (MDA-MB-231 breast) | TGI (NCI-H460 lung) | TGI (SF-539 CNS) | TGI (OVCAR-5 ovarian) | TGI (TK-10 renal) | TGI (HS 578T breast) | TGI (T-47D breast) | TGI (HT29 colon)
60.9 µM: TGI (CCRF-CEM leukemia)
98.5 µM: TGI (ACHN renal)
46.4 µM: TGI (MOLT-4 leukemia)
47.4 µM: TGI (LOX IMVI melanoma)
74.3 µM: TGI (UACC-257 melanoma)
68.3 µM: TGI (UO-31 renal)
42.5 µM: TGI (HCT-116 colon)
51.8 µM: TGI (HL-60(TB) leukemia)
76.3 µM: TGI (COLO 205 colon)
95.1 µM: TGI (MALME-3M melanoma)
44.1 µM: TGI (SR leukemia)
49.1 µM: TGI (SK-MEL-2 melanoma)
84.3 µM: TGI (MCF7 breast) | TGI (RXF 393 renal)

CCCCCCC1N=C(N)N=C(N)N1c1ccc(Cl)cc1 (centres undefined)
24.8 µM: TGI (A498 renal)
16.1 µM: TGI (SN12C renal)
18 µM: TGI (SF-539 CNS)
24.9 µM: TGI (SNB-19 CNS)
11.9 µM: TGI (SR leukemia)
14.7 µM: TGI (U251 CNS) | TGI (LOX IMVI melanoma) | TGI (SK-MEL-5 melanoma)
38 µM: TGI (NCI-H23 lung)
26.7 µM: TGI (COLO 205 colon)
45.4 µM: TGI (EKVX NSCLC)
17.5 µM: TGI (MDA-MB-435)
32.6 µM: TGI (OVCAR-3 ovarian)
39.6 µM: TGI (HOP-62 NSCLC)
25.6 µM: TGI (MCF7 breast)
52.8 µM: TGI (PC-3 prostate)
30 µM: TGI (RPMI-8226 leukemia)
23.5 µM: TGI (M14 melanoma)
17.6 µM: TGI (SF-295 CNS)
22 µM: TGI (HCC-2998 colon)
25.9 µM: TGI (MDA-MB-231 breast)
22.2 µM: TGI (NCI-H522 lung)
32.2 µM: TGI (SW-620 colon)
16.8 µM: TGI (HT29 colon)
18.5 µM: TGI (NCI-H460 lung)
60 µM: TGI (OVCAR-4 ovarian)
38.6 µM: TGI (RXF 393 renal)
26.3 µM: TGI (SK-MEL-2 melanoma)
15.8 µM: TGI (HCT-116 colon)
22.9 µM: TGI (KM12 colon)
32.5 µM: TGI (MOLT-4 leukemia)
33.5 µM: TGI (SNB-75 CNS)
68.8 µM: TGI (UACC-257 melanoma)
> 100 µM: TGI (HCT-15 colon) | TGI (DU-145 prostate) | TGI (A549 NSCLC) | TGI (K-562 leukemia) | TGI (OVCAR-8 ovarian) | TGI (CAKI-1 renal) | TGI (UO-31 renal) | TGI (NCI/ADR-RES ovarian) | TGI (ACHN renal) | TGI (OVCAR-5 ovarian) | TGI (TK-10 renal)
22.1 µM: TGI (HOP-92 NSCLC)
17.4 µM: TGI (IGROV1 ovarian)
21 µM: TGI (MALME-3M melanoma)
81.3 µM: TGI (CCRF-CEM leukemia)
47.1 µM: TGI (786-0 renal)
inactive: GI50 (HCT-116 colon) 3.2 µM | GI50 (HCT-15 colon) > 100 µM | GI50 (DU-145 prostate) 12.1 µM | GI50 (COLO 205 colon) 12.5 µM | GI50 (SF-295 CNS) 2.58 µM | GI50 (PC-3 prostate) 2.9 µM | GI50 (HOP-62 NSCLC) 6.93 µM | GI50 (U251 CNS) 2.53 µM | GI50 (A549 NSCLC) 4.83 µM | GI50 (HCC-2998 colon) 8.95 µM | GI50 (SN12C renal) 3.76 µM | GI50 (RPMI-8226 leukemia) 8.62 µM | GI50 (K-562 leukemia) 5.55 µM | GI50 (IGROV1 ovarian) 3.53 µM | GI50 (NCI-H522 lung) 6.53 µM | GI50 (SW-620 colon) 4.05 µM | GI50 (MALME-3M melanoma) 2.1 µM | GI50 (HOP-92 NSCLC) 2.62 µM | GI50 (OVCAR-8 ovarian) 6.43 µM | GI50 (SK-MEL-28 melanoma) 8.66 µM | GI50 (OVCAR-4 ovarian) 14.4 µM | GI50 (SNB-75 CNS) 6.31 µM | GI50 (MDA-MB-435) 3.36 µM | GI50 (UACC-62 melanoma) 8.55 µM | GI50 (NCI-H23 lung) 5.79 µM | GI50 (CAKI-1 renal) > 100 µM | GI50 (BT-549 breast) 3.37 µM | GI50 (786-0 renal) 4.63 µM | GI50 (A498 renal) 7.05 µM | GI50 (LOX IMVI melanoma) 3.87 µM | GI50 (MCF7 breast) 11.4 µM | GI50 (M14 melanoma) 3.04 µM | GI50 (SK-OV-3 ovarian) 20.9 µM | GI50 (HL-60(TB) leukemia) 10.1 µM | GI50 (NCI-H226 lung) 13.2 µM | GI50 (CCRF-CEM leukemia) 4.67 µM | GI50 (SF-268 CNS) 3.78 µM | GI50 (SK-MEL-2 melanoma) 11.7 µM | GI50 (RXF 393 renal) 10.6 µM | GI50 (SNB-19 CNS) 8.62 µM | GI50 (UO-31 renal) 57.1 µM | GI50 (NCI/ADR-RES ovarian) > 100 µM | GI50 (KM12 colon) 10.4 µM | GI50 (SK-MEL-5 melanoma) 3.47 µM | GI50 (OVCAR-3 ovarian) 12.2 µM | GI50 (MDA-MB-231 breast) 11.2 µM | GI50 (NCI-H460 lung) 4.69 µM | GI50 (SF-539 CNS) 4.16 µM | GI50 (SR leukemia) 3 µM | GI50 (ACHN renal) > 100 µM | GI50 (OVCAR-5 ovarian) 10.7 µM | GI50 (MOLT-4 leukemia) 7.03 µM | GI50 (TK-10 renal) 31.4 µM | GI50 (UACC-257 melanoma) 13 µM | GI50 (HS 578T breast) 2.35 µM | GI50 (EKVX NSCLC) 8.7 µM | GI50 (T-47D breast) 20 µM | GI50 (HT29 colon) 2.66 µM
18.3 µM: TGI (BT-549 breast)
63.1 µM: TGI (SK-OV-3 ovarian)
70.5 µM: TGI (T-47D breast)
18.2 µM: TGI (HS 578T breast)
21.8 µM: TGI (SK-MEL-28 melanoma)
28.3 µM: TGI (HL-60(TB) leukemia)
54.2 µM: TGI (NCI-H226 lung)
37.6 µM: TGI (UACC-62 melanoma)
21.7 µM: TGI (SF-268 CNS)
